For assay [1], the system named is sourgrass. Briefly: Test D sourgrass. It is filed as in vivo, Trichachne insularis. To be noted: Preemergence, 0 to 100 scale. The method, boiled down:
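Each weed species is planted in its own pot or compartment; preemergence doses go on the sandy loam surface within a day. The formulation is a surfactant-containing, non-phytotoxic solvent blend. Ratings come from visual comparison with untreated controls 14 to 21 days later, where 100 means complete control.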

Assay [2] deals with Green foxtail. Briefly: Test D green foxtail. To be noted: Preemergence, 0 to 100 scale. It is filed as in vivo. From the text:
Seeds, tubers, or plant parts of Alexandergrass (Brachiaria plantaginea), bermuda-grass (Cynodon dactylon), common pursiane (Portulaca oleracea), common ragweed (Ambrosia elatior), common groundsel (Senecio vulgaris), dallisgrass (Paspalum dilatatum), goosegrass (Eleusine indica), guineagrass (Panicum maximum), itchgrass (Rottboellia exaltata), Johnson grass (Sorghum halepense), large crabgrass (Digitaria sanguinalis), pitted morningglory (Ipomoea lacunosa), purple nutsedge (Cyperus rotundus), sandbur (Cenchrus echinatus), sourgrass (Trichachne insularis), Spanishneedles (Bidens bipinnata), surinam grass (Brachiaria decumbens) and tall mallow (Malva sylvestris) were planted into greenhouse pots of flats containing greenhouse planting medium. Plant species were grown in separate pots or individual compartments. Preemergence applications were made within one day of planting the seed or plant part.
Test chemicals were formulated in a non-phytotoxic solvent mixture which included a surfactant and applied preemergence to the surface of the pot containing seeds in a sandy loam soil. Untreated control pots and treated pots were placed in the greenhouse for growth and visually evaluated for injury 14 to 21 days after herbicide application. Plant response ratings, summarized in Table C, are based on a 0 to 100 scale where 0 is no injury and 100 is complete control. […]

The subject of assay [3] is kochia. Briefly: Test E kochia. Type of assay: in vivo, Kochia scoparia. To be noted: Preemergence.
Assay [4] has as its system scentless chamomile. As to the kind of experiment: Test E scentless chamomile. Type of assay: in vivo, Matricaria inodora. To be noted: Preemergence.
The subject of assay [5] is eastern black nightshade. As to the kind of experiment: Test C postemergence eastern black nightshade. Type of assay: in vivo, Solanum ptycanthum. To be noted: 0 to 100 scale, 0 no effect, 100 complete control. The method, boiled down:
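Visual injury scored 0-100 (100 = complete control) versus untreated plants roughly 14 to 21 days after treatment. Plants were grown to suitable size in 60:40 sandy loam and potting mix, then treated postemergence with surfactant-containing solvent formulations.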

Assay [6] concerns blackgrass. As to the kind of experiment: Test E blackgrass. Type of assay: in vivo, Alopecurus myosuroides. To be noted: Postemergence. On the procedure:
Compounds evaluated in this test were formulated in a non-phytotoxic solvent mixture which included a surfactant and applied to plants that were in the 1- to 4-leaf stage (postemergence application). A mixture of sandy loam soil and greenhouse potting mix in a 60:40 ratio was used for the postemergence test.
Plantings of these crops and weed species were adjusted to produce plants of appropriate size for the postemergence test. All plant species were grown using normal greenhouse practices. Crop and weed species include annual bluegrass (Poa annua), blackgrass (Alopecurus myosuroides), black nightshade (Solanum nigra), chickweed (Stellaria media), common poppy (Papaver rhoeas), deadnettle (Lamium amplexicaule), downy brome (Bromus tectorum), field violet (Viola arvensis), galium (Galium aparine), green foxtail (Setaria viridis), Italian ryegrass (Lolium multiflorum), jointed goatgrass (Aegilops cylindrica), kochia (Kochia scoparia), lambsquarters (Chenopodium album), littleseed canarygrass (Phalaris minor), rape (Brassica napus), redroot pigweed (Amaranthus retroflexus), Russian thistle (Salsola kali), scentless chamomile (Matricaria inodora), spring barley (Hordeum vulgare), sugar beet (Beta vulgaris), sunflower (Helianthus annuus), ivyleaf speedwell (Veronica hederaefolia), spring wheat (Triticum aestivum), winter wheat (Triticum aestivum), wild buckwheat (Polygonum convolvulus), wild mustard (Sinapis arvensis), wild oat (Avena fatua), windgrass (Apera spica-venti) and winter barley (Hordeum vulgare).
Treated plants and untreated controls were maintained in a greenhouse for approximately 21 to 28 days, after which all treated plants were compared to untreated controls and visually evaluated. […] A dash response (-) means no test result.

Assay [7] relates to ladysthumb smartweed. As to the kind of experiment: Test C postemergence ladysthumb smartweed. Type of assay: in vivo, Polygonum persicaria. To be noted: 0 to 100 scale, 0 no effect, 100 complete control. How it is done:
(§1) Compounds evaluated in this test were formulated in a non-phytotoxic solvent mixture which included a surfactant and applied to plants that were grown for various periods of time before treatment (postemergence application). A mixture of sandy loam soil and greenhouse potting mix in a 60:40 ratio was used for the postemergence test.
Plantings of these crops and weed species were adjusted to produce plants of appropriate size for the postemergence test. All plant species were grown using normal greenhouse practices. […]
Treated plants and untreated controls were maintained in a greenhouse for approximately 14, to 21 days, after which all treated plants were compared to untreated controls and visually evaluated. […]

For assay [8], the system named is deadnettle. Briefly: Test E deadnettle. Type of assay: in vivo, Lamium amplexicaule. To be noted: Preemergence.
The subject of assay [9] is surinam grass. As to the kind of experiment: Test C postemergence surinam grass. Type of assay: in vivo, Brachiaria decumbens. To be noted: 0 to 100 scale, 0 no effect, 100 complete control. On the procedure: as §1
Plantings of these crops and weed species were adjusted to produce plants of appropriate size for the postemergence test. All plant species were grown using normal greenhouse practices. Crop and weed species include arrowleaf sida (Sida rhombifolia), barnyardgrass (Echinochloa crus-galli), cocklebur (Xanthium strumarium), common ragweed (Ambrosia elatior), corn (Zea mays), cotton (Gossypium hirsutum), eastern black nightshade (Solanum ptycanthum), fall panicum (Panicum dichotomiflorum), field bindweed (Convolvulus arvensis), giant foxtail (Setaria faberii), hairy beggarticks (Bidens pilosa), ivyleaf morningglory (Ipomoea hederacea), johnsongrass (Sorghum halepense), ladysthumb smartweed (Polygonum persicaria), lambsquarters (Chenopodium album), large crabgrass (Digitaria sanguinalis), purple nutsedge (Cyperus rotundus), redroot pigweed (Amaranthus retroflexus), soybean (Glycine max), surinam grass (Brachiaria decumbens), velvetleaf (Abutilon theophrasti) and wild poinsettia (Euphorbia heterophylla).
Treated plants and untreated controls were maintained in a greenhouse for approximately 14, to 21 days, after which all treated plants were compared to untreated controls and visually evaluated. Plant response ratings, summarized in Table C, were based upon a 0 to 100 scale where 0 was no effect and 100 was complete control. A dash response (−) means no test result.

[10] abbreviates: Rate 62 g/ha, 0 to 100 scale, 0 no effect, 100 complete control.
The mark [11] stands for this setting: Rate 125 g/ha, 0 to 100 scale (0 no effect, 100 complete control).
The mark [12] stands for this setting: Rate 250 g/ha, 0 to 100 scale (0 no effect, 100 complete control).
The mark [13] stands for this setting: Rate 500 g/ha, 0 to 100 scale where 0 is no effect and 100 is complete control.

Turning to `Cc1cccc(C)c1-n1c(=O)on(C(=O)N(c2ccc(F)cc2F)C(C)C)c1=O` [Compound 28], the “Plant response rating, Sourgrass” value in assay [1] (Rate 32 g/ha, 0 no injury, 100 complete control) is reported as 60; in assay [1] (Rate 250 g/ha), 100. For the same compound, the “Sourgrass plant response rating” value in assay [1] (Rate 64 g/ha, 0 no injury, 100 complete control) amounted to 85; in assay [1] (Rate 125 g/ha, 0 no injury, 100 complete control), 100.

Consider `CCn1c(=O)on(C(=O)N(c2ccc(F)cc2)C(C)C)c1=O` [Compound 107], for which the “Plant response rating, Green foxtail” value in [2] (Rate 250 g/ha) and in assay [2] (Rate 500 g/ha) was 100 in each case. Also, the “Plant response rating, Kochia” value in [3] (setting [10]) turned out to be 50; in [3] (setting [11]) it was 60; in assay [3] (Rate 250 g/ha, 0 to 100 scale), 80. The “Plant response rating, Scentless chamo” value in [4] (setting [10]) is given as 70; in [4] (setting [11]), 80; in [4] (Rate 250 g/ha, 0 to 100 scale), 90. Further, the “Plant response rating E. blacknightsh” value in [5] (Rate 140 g/ha) was found to be 50; in assay [5] (Rate 280 g/ha), 50; in assay [5] (Rate 560 g/ha), 70; in assay [5] (Rate 1120 g/ha), 95. Moreover, the “Plant response rating, Blackgrass” value stood at 5 in assay [6] (Rate 62 g/ha, 0 to 100 scale); 80 in assay [6] (Rate 125 g/ha, 0 to 100 scale); 85 in assay [6] (setting [12]). In addition, the “Plant response rating Ladysthumb” value in assay [7] (Rate 140 g/ha) came out at 0; in assay [7] (Rate 560 g/ha) it was 30. For the same compound, the “Plant response rating, Deadnettle” value in assay [8] (setting [10]) was 50; in assay [8] (setting [11]) it was 60; in [8] (Rate 250 g/ha, 0 to 100 scale), 85. The “Plant response rating, Surinam grass” value in assay [9] (Rate 140 g/ha) stood at 10; in assay [9] (Rate 280 g/ha), 70; in [9] (Rate 560 g/ha) it was 80; in assay [9] (Rate 1120 g/ha), 95.

Regarding `CCn1c(=O)on(C(=O)N(c2ccc(F)cc2F)C(C)C)c1=O` [Compound 116], the “Plant response rating, Kochia” value in assay [3] (setting [11]) came to 0; in [3] (Rate 250 g/ha, 0 to 100 scale), 85; in assay [3] (setting [13]) it was 70. The “Plant response rating E. blacknightsh” value in assay [5] (Rate 140 g/ha) is 0; in assay [5] (Rate 280 g/ha), 0; in assay [5] (Rate 560 g/ha), 10; in assay [5] (Rate 1120 g/ha) it was 50. The “Plant response rating, Blackgrass” value in assay [6] (Rate 62 g/ha, 0 to 100 scale) is 0; in [6] (Rate 125 g/ha, 0 to 100 scale), 40; in [6] (setting [12]) it was 80; in [6] (Rate 500 g/ha, 0 to 100 scale, 0 no effect, 100 complete control), 80. In addition, the “Plant response rating, Deadnettle” value is recorded as 95 in assay [8] (setting [11]); 80 in assay [8] (Rate 250 g/ha, 0 to 100 scale); 80 in assay [8] (setting [13]). Also, the results for the “Plant response rating, Surinam grass” value in assay [9] (Rate 140 g/ha), in assay [9] (Rate 280 g/ha) and in assay [9] (Rate 1120 g/ha) were 0, 0 and 90, respectively.

The values above are taken from US6737383B1, “Herbicidal oxadiazolidines” (priority 1999, dated 2004).
